Measurements from patent US20230094952A1, “Method for Culturing Hematopoietic Stem Cells” (Sumitomo Pharma Co., Ltd., priority 2019, published 2023).

Test system: mouse long-term hematopoietic stem cells
Test: Reproducibility and concentration dependence test: 1-week culture of sorted Hoxb5-tri-mCherry mouse long-term hematopoietic stem cells, flow cytometry
Assay type: cell-based
Details: day 7 of culture, n=2
Description: Mice with insertion of a nucleic acid sequence containing three copies of a gene encoding the fluorescent protein mCherry to the C terminus of the mouse endogenous HoxB5 gene (Hoxb5-tri-mCherry) were used (triple-mCherry Hoxb5 knock-in mice; Non Patent Literature 1). The mice were housed under environmental conditions such that the room temperature and the humidity were 20 to 26° C. and 40 to 70%, respectively, under light for 12 hours and under dark for 12 hours (illumination: 8:00 a.m. to 8:00 p.m.).
Bone marrow cells were collected from the tibia, femur, humerus, and pelvis in each side of each of the mice, and gathered in a mortar. A buffer obtained by adding thermally deactivated bovine serum (manufactured by Gibco) at a final concentration of 2% and EDTA at a final concentration of 2 mM to Ca^2+-free and Mg^2+-free PBS was added, and the resultant was broken with a pestle to obtain a cell population including hematopoietic stem cells.
First, the thus-obtained cell population including hematopoietic stem cells was passed through strainers (meshes) of 100 μm, 70 μm, and 40 μm. The cell population was stained with an APC-binding anti-c-Kit (2B8) and fractionated with anti-APC magnetic beads and an LS column (both manufactured by Miltenyi Biotec) to obtain a cell population enriched with hematopoietic stem cells and progenitor cells.
Subsequently, cells being c-Kit-positive were stained with antibodies for the following cell surface markers.
Staining with the antibodies was performed at 4° C., and the cells were incubated for 30 minutes. For staining with the CD34 antibody, the cells were incubated for 90 minutes. Dead cell staining was performed with SYTOX Red Dead Cell Stain (manufactured by Life Technologies) in accordance with a method recommended by the manufacturer.
Flow cytometry analysis and cell classification (cell sorting) were performed with a FACS Aria II cell sorter (manufactured by BD Biosciences), wherein Lineage-negative, c-Kit-positive, Sca-1-positive, Flk2-negative, CD34-negative or weakly CD34-positive, CD150-positive, and mCherry-positive fractions were regarded as long-term hematopoietic stem cells, and analysis was performed with the software FlowJo (manufactured by Tree Star, Inc.).
The cells after classification were seeded in a 96-well plate. A cell culture medium was prepared by adding Stem Cell Factor (SCF, manufactured by PeproTech, Inc.) and Thrombopoietin (TPO, manufactured by PeproTech, Inc.) to StemSpan SFEM culture medium (manufactured by […] Technologies Inc.) and added in advance to a cell culture 96-well plate (manufactured by BD Biosciences) at 100 μL/well, and the cells sorted with the FACS Aria II cell sorter (BD Biosciences) were then seeded at 10 cells/well.
[…] Thereafter, the cells were cultured in a CO2 incubator under conditions of 37° C. and 5% CO2 for 1 week.
After culture, the cells were stained with the antibodies for the surface markers c-Kit and Sca-1, Ter-119, B220, CD3, CD4, CD8a, Gr-1, and CD11b, and the ratio and post-growth cell count of a KLS fraction (c-Kit^+, Lin^−, Sca-1^+) or an mCherry-positive fraction given with use of a FACS Aria II cell sorter were analyzed by using FlowJo (BD Biosciences). The mCherry-positive fraction is a cell fraction expressing the Hoxb5 gene, and the KLS fraction is a cell fraction being c-Kit-positive, Lin-negative, and Sca-1-positive, and includes hematopoietic stem cells and multipotent progenitor cells as main components. […]

Compound C[C@@H]1CC[C@H]2[C@@H](C)C(=O)O[C@@H]3O[C@@]4(C)CC[C@@H]1[C@]32OO4 [Example 1-33, artemisinin, reference compound] has a KLS-positive rate (Table 3, compound 0.1 μM) of 33.2%, a Viable cell count (Table 3, compound 0.1 μM) of 445.5 cell and a mCherry-positive rate (Table 3, compound 0.1 μM) of 49.25%. The KLS-positive rate (Table 3, compound 0.3 μM) was 18.2%, the Viable cell count (Table 3, compound 0.3 μM) was 1020 cell and the mCherry-positive rate (Table 3, compound 0.3 μM) was 28.15%. The KLS-positive rate (Table 3, compound 1 μM) was 46.85%, the Viable cell count (Table 3, compound 1 μM) was 728 cell and the mCherry-positive rate (Table 3, compound 1 μM) was 60.85%. It also gave a KLS-positive rate (Table 3, compound 3 μM) of 50.8%, a Viable cell count (Table 3, compound 3 μM) of 229 cell and a mCherry-positive rate (Table 3, compound 3 μM) of 81.3%. It also gave a KLS-positive rate (Table 3, compound 10 μM) of 52%, a Viable cell count (Table 3, compound 10 μM) of 282.5 cell and a mCherry-positive rate (Table 3, compound 10 μM) of 80%. For the same compound, the KLS-positive rate (Table 4, compound 0.1 μM) was 20.2%, the Viable cell count (Table 4, compound 0.1 μM) was 268.5 cell and the mCherry-positive rate (Table 4, compound 0.1 μM) was 28.1%. For the same compound, the KLS-positive rate (Table 4, compound 0.3 μM) was 11.2%, the Viable cell count (Table 4, compound 0.3 μM) was 309.5 cell and the mCherry-positive rate (Table 4, compound 0.3 μM) was 23.5%. The KLS-positive rate (Table 4, compound 1 μM) was 20.3%, the Viable cell count (Table 4, compound 1 μM) was 268.0 cell and the mCherry-positive rate (Table 4, compound 1 μM) was 56.8%. For the same compound, the KLS-positive rate (Table 4, compound 3 μM) was 26.1%, the Viable cell count (Table 4, compound 3 μM) was 85.0 cell and the mCherry-positive rate (Table 4, compound 3 μM) was 81.8%. For the same compound, the KLS-positive rate (Table 4, compound 10 μM) was 16.1%, the Viable cell count (Table 4, compound 10 μM) was 178.0 cell and the mCherry-positive rate (Table 4, compound 10 μM) was 78.8%.
In the case of CC(=O)N[C@@H]1O[C@@H]2O[C@@]3(C)CC[C@H]4[C@H](C)CC[C@@H]([C@H]1C)[C@@]24OO3 [Example 1-10, N-[(3R,5aS,6R,8aS,9R,10R,12R,12aR)-3,6,9-Trimethyldecahydro-12H-3,12-epoxypyrano[4,3-j][1,2]benzodioxepin-10-yl]acetamide], the KLS-positive rate (Table 4, compound 0.1 μM) is reported as 19.7%, the Viable cell count (Table 4, compound 0.1 μM) is reported as 717.5 cell and the mCherry-positive rate (Table 4, compound 0.1 μM) is reported as 6.5%. It also gave a KLS-positive rate (Table 4, compound 0.3 μM) of 23.1%, a Viable cell count (Table 4, compound 0.3 μM) of 387.0 cell and a mCherry-positive rate (Table 4, compound 0.3 μM) of 16.5%. It also gave a KLS-positive rate (Table 4, compound 1 μM) of 32.9%, a Viable cell count (Table 4, compound 1 μM) of 325.5 cell and a mCherry-positive rate (Table 4, compound 1 μM) of 9.1%. For the same compound, the KLS-positive rate (Table 4, compound 3 μM) was 33.1%, the Viable cell count (Table 4, compound 3 μM) was 579.0 cell and the mCherry-positive rate (Table 4, compound 3 μM) was 38.5%. It also gave a KLS-positive rate (Table 4, compound 10 μM) of 53.1%, a Viable cell count (Table 4, compound 10 μM) of 46.5 cell and a mCherry-positive rate (Table 4, compound 10 μM) of 99.3%.
Compound CO[C@@H]1O[C@@H]2O[C@@]3(C)CC[C@H]4[C@H](C)CC[C@@H]([C@H]1C)[C@@]24OO3 [Example 1-35, (3R,5aS,6R,8aS,9R,10R,12R,12aR)-10-Methoxy-3,6,9-trimethyldecahydro-12H-3,12-epoxypyrano[4,3-j][1,2]benzodioxepine] has a KLS-positive rate (Table 4, compound 0.1 μM) of 13.8%, a Viable cell count (Table 4, compound 0.1 μM) of 763.5 cell and a mCherry-positive rate (Table 4, compound 0.1 μM) of 3.0%. The KLS-positive rate (Table 4, compound 0.3 μM) was 19.9%, the Viable cell count (Table 4, compound 0.3 μM) was 544.5 cell and the mCherry-positive rate (Table 4, compound 0.3 μM) was 48.5%. For the same compound, the KLS-positive rate (Table 4, compound 1 μM) was 17.9%, the Viable cell count (Table 4, compound 1 μM) was 554.0 cell and the mCherry-positive rate (Table 4, compound 1 μM) was 74.0%. It also gave a KLS-positive rate (Table 4, compound 3 μM) of 48.7%, a Viable cell count (Table 4, compound 3 μM) of 104.5 cell and a mCherry-positive rate (Table 4, compound 3 μM) of 92.2%. It also gave a KLS-positive rate (Table 4, compound 10 μM) of 46.7%, a Viable cell count (Table 4, compound 10 μM) of 121.5 cell and a mCherry-positive rate (Table 4, compound 10 μM) of 99.6%.
Work on C[C@@H]1CC[C@H]2[C@@H](C)C(=O)O[C@@H]3O[C@@]4(C)CC[C@@H]1[C@]32O4 [Example 1-34, (3R,3aS,6R,6aS,9S,10aS,10bR)-3,6,9-Trimethyloctahydro-10aH-9,10b-epoxypyrano[4,3,2-jk][2]benzoxepin-2(3H)-one] yielded a KLS-positive rate (Table 4, compound 0.1 μM) of 77.3%, a Viable cell count (Table 4, compound 0.1 μM) of 136.5 cell and a mCherry-positive rate (Table 4, compound 0.1 μM) of 11.7%. For the same compound, the KLS-positive rate (Table 4, compound 0.3 μM) was 28.4%, the Viable cell count (Table 4, compound 0.3 μM) was 389.0 cell and the mCherry-positive rate (Table 4, compound 0.3 μM) was 18.3%. For the same compound, the KLS-positive rate (Table 4, compound 1 μM) was 21.8%, the Viable cell count (Table 4, compound 1 μM) was 713.5 cell and the mCherry-positive rate (Table 4, compound 1 μM) was 15.2%. It also gave a KLS-positive rate (Table 4, compound 3 μM) of 27.7%, a Viable cell count (Table 4, compound 3 μM) of 268.0 cell and a mCherry-positive rate (Table 4, compound 3 μM) of 14.6%. For the same compound, the KLS-positive rate (Table 4, compound 10 μM) was 27.5%, the Viable cell count (Table 4, compound 10 μM) was 70.0 cell and the mCherry-positive rate (Table 4, compound 10 μM) was 0.4%.
Compound CC(C)O[C@H]1O[C@@H]2O[C@@]3(C)CC[C@H]4[C@H](C)CC[C@@H]([C@H]1C)[C@@]24OO3 [Example 1-19, (3R,5aS,6R,8aS,9R,10S,12R,12aR)-3,6,9-Trimethyl-10-[(propan-2-yl)oxy]decahydro-12H-3,12-epoxypyrano[4,3-j][1,2]benzodioxepine] has a KLS-positive rate (Table 4, compound 0.1 μM) of 9.5%, a Viable cell count (Table 4, compound 0.1 μM) of 469.0 cell and a mCherry-positive rate (Table 4, compound 0.1 μM) of 56.3%. The KLS-positive rate (Table 4, compound 0.3 μM) was 41.7%, the Viable cell count (Table 4, compound 0.3 μM) was 151.0 cell and the mCherry-positive rate (Table 4, compound 0.3 μM) was 96.2%. It also gave a KLS-positive rate (Table 4, compound 1 μM) of 4.2%, a Viable cell count (Table 4, compound 1 μM) of 6.0 cell and a mCherry-positive rate (Table 4, compound 1 μM) of 50.0%. It also gave a KLS-positive rate (Table 4, compound 3 μM) of 0.0%, a Viable cell count (Table 4, compound 3 μM) of 0.0 cell and a mCherry-positive rate (Table 4, compound 3 μM) of 0.0%. For the same compound, the KLS-positive rate (Table 4, compound 10 μM) was 0.0%, the Viable cell count (Table 4, compound 10 μM) was 0.5 cell and the mCherry-positive rate (Table 4, compound 10 μM) was 50.0%.
C[C@H]1[C@@H](F)O[C@@H]2O[C@@]3(C)CC[C@H]4[C@H](C)CC[C@@H]1[C@@]24OO3 [Example 1-1, (3R,5aS,6R,8aS,9R,10R,12S,12aR)-10-Fluoro-3,6,9-trimethyldecahydro-12H-3,12-epoxypyrano[4,3-j][1,2]benzodioxepine] showed a KLS-positive rate (Table 4, compound 0.1 μM) of 46.5%, a Viable cell count (Table 4, compound 0.1 μM) of 477.0 cell and a mCherry-positive rate (Table 4, compound 0.1 μM) of 0.5%. The KLS-positive rate (Table 4, compound 0.3 μM) was 0.0%, the Viable cell count (Table 4, compound 0.3 μM) was 0.0 cell and the mCherry-positive rate (Table 4, compound 0.3 μM) was 0.0%. The KLS-positive rate (Table 4, compound 1 μM) was 0.0%, the Viable cell count (Table 4, compound 1 μM) was 0.5 cell and the mCherry-positive rate (Table 4, compound 1 μM) was 50.0%. The KLS-positive rate (Table 4, compound 3 μM) was 0.0%, the Viable cell count (Table 4, compound 3 μM) was 0.0 cell and the mCherry-positive rate (Table 4, compound 3 μM) was 0.0%. The KLS-positive rate (Table 4, compound 10 μM) was 0.0%, the Viable cell count (Table 4, compound 10 μM) was 0.0 cell and the mCherry-positive rate (Table 4, compound 10 μM) was 0.0%.
C[C@H]1[C@H](S(C)(=O)=O)O[C@@H]2O[C@@]3(C)CC[C@H]4[C@H](C)CC[C@@H]1[C@@]24OO3 [Example 1-5, (3R,5aS,6R,8aS,9R,10S,12S,12aR)-10-(Methanesulfonyl)-3,6,9-trimethyldecahydro-12H-3,12-epoxypyrano[4,3-j][1,2]benzodioxepine] gave a KLS-positive rate (Table 4, compound 0.1 μM) of 18.2%, a Viable cell count (Table 4, compound 0.1 μM) of 443.5 cell and a mCherry-positive rate (Table 4, compound 0.1 μM) of 11.5%. For the same compound, the KLS-positive rate (Table 4, compound 0.3 μM) was 41.7%, the Viable cell count (Table 4, compound 0.3 μM) was 221.5 cell and the mCherry-positive rate (Table 4, compound 0.3 μM) was 8.5%. The KLS-positive rate (Table 4, compound 1 μM) was 20.0%, the Viable cell count (Table 4, compound 1 μM) was 308.0 cell and the mCherry-positive rate (Table 4, compound 1 μM) was 4.5%. It also gave a KLS-positive rate (Table 4, compound 3 μM) of 30.8%, a Viable cell count (Table 4, compound 3 μM) of 184.0 cell and a mCherry-positive rate (Table 4, compound 3 μM) of 41.5%. It also gave a KLS-positive rate (Table 4, compound 10 μM) of 0.0%, a Viable cell count (Table 4, compound 10 μM) of 1.5 cell and a mCherry-positive rate (Table 4, compound 10 μM) of 0.0%.
